Earlier results in patent US20140127235A1, “TARGETING HK alpha FOR CONTROLLING BLOOD PRESSURE AND REGULATING ELECTROLYTE BALANCE” (UNIVERSITY OF FLORIDA RESEARCH FOUNDATION, INC., priority 2011, published 2014).

Experiments:
[1] = target: HKα1-containing H^+,K^+-ATPases (Homo sapiens, UniProt P20648); settings: subsequent studies; cited from earlier work
H^+,K^+-ATPase = settings: rats, seven days low, normal or high aldosterone levels, normal and high K+ diets; cited from earlier work
HKa2 mRNA = settings: progesterone alone (Elabida et al., 2011); cited from earlier work

Sequence of HKα1-containing H^+,K^+-ATPases (P20648 whole entry): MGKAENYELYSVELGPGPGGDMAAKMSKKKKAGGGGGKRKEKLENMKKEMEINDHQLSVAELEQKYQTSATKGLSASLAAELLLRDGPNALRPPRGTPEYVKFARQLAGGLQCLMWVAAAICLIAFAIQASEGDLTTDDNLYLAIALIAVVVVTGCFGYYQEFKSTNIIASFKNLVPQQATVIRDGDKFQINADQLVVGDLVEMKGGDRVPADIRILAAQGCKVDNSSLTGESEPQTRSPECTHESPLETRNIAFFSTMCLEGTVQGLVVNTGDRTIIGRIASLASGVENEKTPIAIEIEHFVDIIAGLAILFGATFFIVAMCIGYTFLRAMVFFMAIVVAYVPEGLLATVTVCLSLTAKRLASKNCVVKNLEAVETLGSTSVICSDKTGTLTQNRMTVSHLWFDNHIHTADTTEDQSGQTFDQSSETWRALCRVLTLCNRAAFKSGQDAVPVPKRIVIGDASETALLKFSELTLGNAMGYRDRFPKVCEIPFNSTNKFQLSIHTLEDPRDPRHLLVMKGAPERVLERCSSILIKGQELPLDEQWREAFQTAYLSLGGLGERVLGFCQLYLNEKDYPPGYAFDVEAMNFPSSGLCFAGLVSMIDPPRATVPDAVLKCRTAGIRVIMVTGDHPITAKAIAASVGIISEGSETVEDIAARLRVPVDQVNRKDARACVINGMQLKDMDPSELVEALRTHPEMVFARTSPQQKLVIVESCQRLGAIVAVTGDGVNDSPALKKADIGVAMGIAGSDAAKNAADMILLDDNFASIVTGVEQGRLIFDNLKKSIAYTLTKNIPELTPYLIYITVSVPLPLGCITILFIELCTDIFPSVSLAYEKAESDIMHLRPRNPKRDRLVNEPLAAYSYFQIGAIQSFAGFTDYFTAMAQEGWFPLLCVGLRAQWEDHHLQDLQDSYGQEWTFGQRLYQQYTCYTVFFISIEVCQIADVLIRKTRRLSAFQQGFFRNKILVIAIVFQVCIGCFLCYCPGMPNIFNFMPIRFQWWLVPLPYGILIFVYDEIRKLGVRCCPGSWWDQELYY
Sequence of HKα1-containing H^+,K^+-ATPases (P51164 whole entry partner): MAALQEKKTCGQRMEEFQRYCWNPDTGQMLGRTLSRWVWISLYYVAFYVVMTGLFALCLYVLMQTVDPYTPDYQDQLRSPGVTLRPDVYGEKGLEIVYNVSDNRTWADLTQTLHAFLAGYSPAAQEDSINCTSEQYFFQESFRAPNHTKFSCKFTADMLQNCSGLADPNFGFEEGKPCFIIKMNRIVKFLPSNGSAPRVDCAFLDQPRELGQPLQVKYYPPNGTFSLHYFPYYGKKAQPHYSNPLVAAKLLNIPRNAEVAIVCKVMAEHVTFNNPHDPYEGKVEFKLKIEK

**Q.** For `Cc1nc2c(OCc3ccccc3)cccn2c1CC#N` [Schering 28080], which “H+,K+-ATPase isoform inhibited” value [1] is on record?
**A.** only inhibit the HKα1-containing H^+,K^+-ATPases

**Q.** Which “effect on Schering 28080-sensitive ATPase activity” value (H^+,K^+-ATPase) does the source give for `C[C@]12CCC(=O)C=C1CC[C@@H]1[C@@H]2[C@@H](O)C[C@]2(C=O)[C@@H](C(=O)CO)CC[C@@H]12` [aldosterone] here?
**A.** did not significantly affect

**Q.** For `CC(=O)[C@H]1CC[C@H]2[C@@H]3CCC4=CC(=O)CC[C@]4(C)[C@H]3CC[C@]12C` [progesterone], which “effect on renal HKa2 mRNA expression” value (HKa2 mRNA) is on record?
**A.** stimulated
